Laboratory results: patent US20230255943A1, “MMP-9 AND MMP-12 INHIBITION FOR TREATING SPINAL CORD INJURY OR RELATED INJURY TO NEUROLOGICAL TISSUE” (The University of Birmingham, priority 2020, published 2023)

How the values were obtained:
[1] = system: mice with DC crush injury; experiment: Spinal cord water content (oedema) after DC crush injury in mice; type: in vivo, mouse; settings: 3 days after DC injury; doses and routes of Table 1; vs DC+vehicle
Description: For oral delivery of AZD1236, n=6 adult male C57BL6 mice/group (Charles River, Margate, UK) were randomly allocated to either: (1), Sham (control; partial laminectomy but no DC crush injury); (2), DC crush injury+vehicle (partial laminectomy followed by DC crush injury and injection of vehicle); (3), DC crush injury+100 mg/kg AZD1236; (4), DC crush injury+200 mg/kg AZD1236; and (5), DC crush injury+300 mg/kg AZD1236. For intrathecal (it) delivery of AZD1236, adult male C57BL6 mice (25-30 g) (Charles River, Margate, UK) were randomly allocated to either: (1), Sham (control; partial laminectomy but no DC crush injury); (2), DC crush injury+vehicle (partial laminectomy followed by DC crush injury and injection of vehicle); (3), DC crush injury+2.5 mg/kg AZD1236; (4), DC crush injury+5 mg/kg AZD1236; and (5), DC crush injury+10 mg/kg AZD1236. For intrathecal delivery an indwelling atlanto-occipital intrathecal catheter was inserted into the intrathecal space, as described previously (F. A. Oladosu, B. P. Ciszek, S. C. O'Buckley, A. G. Nackley, Novel intrathecal and subcutaneous catheter delivery systems in the mouse. J Neurosci Methods 264, 119-128 (2016)). Briefly, with mice in the sternal recumbency a small incision was made at the nape of the neck followed by detachment of the muscles on either side of the external occipital crest to expose the A-O membrane. The membrane was incised and a 6 cm Alzet mouse intrathecal catheter (Alzet, Cupertino, Calif., USA) and polyurethane segments were gently guided 2.5 cm into the intrathecal space. The catheter was secured using 4-0 silk sutures (Oasis Medical, IL) and the exposed end of the catheter was sealed off with a stainless-steel plug and affixed to the upper back. Animals were injected immediately with vehicle or AZD1236 followed by a 10 μl PBS catheter flush. Injections were repeated every twice daily for the first 3 days after injury and drugs and vehicle reagents were delivered over 1 min time period using a Hamilton microlitre syringe (Hamilton Co, USA). Where specified intact animals with no surgical procedures were also used. All lesions were administered under 5% isofluorane induced inhalation anaesthesia, with 1.51/min O2. Pre- and post-injury analgesia was also provided.
DC crush injury was administered bilaterally at the T8 vertebral level as described previously (S. Surey, M. Berry, A. Logan, R. Bicknell, Z. Ahmed, Differential cavitation, angiogenesis and wound-healing responses in injured mouse and rat spinal cords. Neuroscience 275, 62-80 (2014); M. L. Read, S. Mir, R. Spice, R. J. Seabright, E. L. Suggate, Z. Ahmed, M. Berry, A. Logan, Profiling RNA interference (RNAi)-mediated toxicity in neural cultures for effective short interfering RNA design. J Gene Med 11, 523-534 (2009)). Briefly, calibrated watchmaker's forceps were separated by 0.5 mm and inserted through the dorsal cord meninges to a depth of 0.45 mm in mice and separated by 1 mm and inserted through the dorsal cord meninges to a depth of 1.0 mm in rats, and the DC were crushed for 3 seconds. AZD1236 or vehicle was administered twice daily by oral gavage or intrathecally, either immediately for the first 3 days or 24 hours after injury and treating twice daily until day 4 (i.e. 3 days of AZD1236 dosing). All experiments were performed with n=6 mice/group and repeated on at least 2-3 independent occasions (total=12-18 animals/group/test).
The lesion site+3 mm either side for mice and the lesion site+5 mm either side for the rat DC model were dissected out and the water content of the spinal cord (as a measure of oedema) was determined at 3 days after DC and CC SCI, as described previously (S. Li, C. H. Tator, Effects of MK801 on evoked potentials, spinal cord blood flow and cord edema in acute spinal cord injury in rats. Spinal Cord 37, 820-832 (1999)). Spinal cords containing the lesion site were weighed on aluminium foil, dried at 105° C. for 24 hr, and re-weighed. […]

[2] = system: SCI-induced oedema; experiment: Example 3: spinal cord water content with aquaporin-4 relocalisation inhibitors; settings: in vivo
Description: (§1) The lesion site+3 mm either side for mice and the lesion site+5 mm either side for the rat DC model were dissected out and the water content of the spinal cord (as a measure of oedema) was determined at 3 days after DC and CC SCI, as described previously (S. Li, C. H. Tator, Effects of MK801 on evoked potentials, spinal cord blood flow and cord edema in acute spinal cord injury in rats. Spinal Cord 37, 820-832 (1999)). Spinal cords containing the lesion site were weighed on aluminium foil, dried at 105° C. for 24 hr, and re-weighed. The percent water content was calculated as: water content (%)=[(wet weight-dry weight)/wet weight]×100%.
Using similar techniques to those described in Example 1, the water content in the spinal cord as a measure of injury-induced oedema was determined for various agents and aquaporin-4 inhibitors, namely TFP, PKAi, PKCi and TGN-020—see FIG. 21.

[3] = system: J774A.1, RAW 264.7 and primary mouse peritoneal macrophages; experiment: Transwell migration assay of macrophages; type: cell-based; settings: J774A.1 and RAW 264.7, 3 h
Description: J774A.1 cells (#TIB-67; ATCC, Middlesex, UK) were cultured in DMEM supplemented with 10% FBS, 100 U/ml penicillin, 100 μg/ml streptomycin, and 0.25 μg amphotericin B. Cells were seeded in T75 tissue-culture flasks and maintained at 37° C. and 5% CO2. RAW 264.7 cells (#TIB-71; ATCC) were maintained in DMEM containing 10% FBS.
Resident peritoneal cells were harvested from adult C57BL/6 mice (6-8 weeks old) by injection of 10 ml of PBS using a 21G needle into the peritoneal cavity and harvesting the cell suspension, as described previously (Rosas M, Davies L C, Giles P J, Liao C T, Kharfan B, Stone T C, et aL. The transcription factor Gata6 links tissue macrophage phenotype and proliferative renewal. Science 2014; 344(6184): 645-8). Peritoneal cells were then centrifuged at 100×g for 10 min and the cell pellet resuspended in DMEM/F12 medium. Cell were incubated at 37° C., for 2 h and non-adherent cells were removed by gentle washing. Cells were expanded in DMEM/F12 medium containing 10% FBS. For migration assays, cells were grown in RPMI containing 0.02% BSA for 24 h to obtain quiescent cells prior to using them in Transwell migration assays as described below.
Migration assays were performed with J774A.1, RAW 264.7 and primary mouse peritoneal macrophages in 6.5 mm Transwell plates (ThermoFisher) with 8 μm pore inserts, as described previously (Green et al., 2012). Briefly, inserts were coated with rat tail type I collagen and 1×10^5 cells (J774A.1, RAW 264.7 or primary mouse macrophages) were resuspended in chemotaxis buffer (RMPI 1640 plus 0.02% BSA, (termed RPMI from herein)) and added to the upper chamber and incubated with migration medium, with or without known chemotactic factors MCP-1 (100 ng/ml) and PMA (100 nM), or AZD1236, GM6001, SD2590 and MMP-9 Inhibitor I (all used at 1, 10, 100, 1000 ng/ml) added to the lower chamber. Cells were allowed to migrate through the insert membrane for 3 h at 37° C., before washing inserts with PBS. Non-migrating cells remaining on the upper surface were removed with a cotton swab whilst the migrated cells on the insert were fixed, stained with Diff-Quick (#26096, Electron Microscopy Science, Hatfield, UK), and mounted on glass slides. Migration was measured visually by counting using a light microscope at 40× magnification. The mean number of cells in 10 random fields were calculated for each treatment by an experimenter masked to the treatment conditions. A migration index was calculated by dividing the number of cells that migrated in response to the chemokine by the number of cells that migrated randomly (RPMI medium) with a reference index>1, indicating chemotaxis.

[4] = system: IL-1β, TNF-α and IL-6; experiment: Proinflammatory pain markers after CC SCI in mice; type: in vivo, mouse; settings: oral gavage immediately after injury
Description: CC SCI was administered at the T7-T8 vertebral level after exposure of T6-T9 by laminectomy. The aneurysm clip applicator was oriented in a bilateral direction and an aneurysm clip with a closing force of 24 g was applied extradurally for 60 s, as described previously (A. S. Rivlin, C. H. Tator, Effect of duration of acute spinal cord compression in a new acute cord injury model in the rat. Surg Neurol 10, 38-43 (1978):E. Esposito, I. Paterniti, E. Mazzon, T. Genovese, M. Galuppo, R. Meli, P. Bramanti, S. Cuzzocrea, MK801 attenuates secondary injury in a mouse experimental compression model of spinal cord trauma. BMC Neurosci 12, 31 (2011)).
The urinary bladders were manually emptied twice daily until bladder function was regained. Adult male C57BL6 mice (25-30 g) (Charles River, Margate, UK) were randomly allocated to either: (1), Sham (control; laminectomy but no CC SCI); (2), CC SCI+vehicle; (3), CC SCI+200 mg/kg AZD1236 (oral); (4), CC SCI+5 mg/kg AZD1236 (it). All experiments were performed with n=6 mice/group and repeated on 3 independent occasions (total=18 mice/group/test).
The lesion site+5 mm either side (DC and CC SCI, n=6 mice/rats/group, 2 independent repeats (total n=12 mice/rats/group)) was dissected and rapidly frozen in liquid N2 and stored at −80° C. until required. […] The levels of mRNA of MMP-9, MMP-12, IL-1β, TNF-α and IL-6 were determined using pre-validated mouse primer sequences from complimentary DNA prepared from extracted mRNA and qRT-PCR was performed using a LightCycler PCR machine (Roche, Burgess Hill, UK) (M. L. Read, S. Mir, R. Spice, R. J. Seabright, E. L. Suggate, Z. Ahmed, M. Berry, A. Logan, Profiling RNA interference (RNAi)-mediated toxicity in neural cultures for effective short interfering RNA design. J Gene Med 11, 523-534 (2009)). […] Fold changes were computed using the ΔΔCt method (M. L. Read, S. Mir, R. Spice, R. J. Seabright, E. L. Suggate, Z. Ahmed, M. Berry, A. Logan, Profiling RNA interference (RNAi)-mediated toxicity in neural cultures for effective short interfering RNA design. J Gene Med 11, 523-534 (2009).

[5] = system: mice with DC crush injury; experiment: CSF biomarkers of SCI (S100β, NSE, GFAP, pNF-H, NF-L); type: in vivo, mouse; settings: 3 d after injury
[6] = system: rats with DC crush injury; experiment: Spinal cord water content after DC injury in rats; type: in vivo; settings: rat DC injury, oral, 3 days
Description: DC crush injury was administered bilaterally at the T8 vertebral level as described previously (S. Surey, M. Berry, A. Logan, R. Bicknell, Z. Ahmed, Differential cavitation, angiogenesis and wound-healing responses in injured mouse and rat spinal cords. Neuroscience 275, 62-80 (2014); M. L. Read, S. Mir, R. Spice, R. J. Seabright, E. L. Suggate, Z. Ahmed, M. Berry, A. Logan, Profiling RNA interference (RNAi)-mediated toxicity in neural cultures for effective short interfering RNA design. J Gene Med 11, 523-534 (2009)). […]
The efficacy of oral AZD3342 in the DC injury model in adult Sprague-Dawley rat was also assessed. […]
as §1, with “Spinal cords containing the lesion site were weighed on aluminium foil, dried at 105° C. for 24 hr, and re-weighed.” left out

[7] = system: IL-1β, TNF-α and IL-6; experiment: Proinflammatory pain cytokines after DC injury in rats; type: in vivo; settings: rat DC injury, oral
Description: The efficacy of oral AZD3342 in the DC injury model in adult Sprague-Dawley rat was also assessed. Animals were divided into 6 groups: (1), Sham (control); (2), DC crush injury+Vehicle; (3), DC crush injury+15 mg/kg AZD3342; (4), DC crush injury+75 mg/kg […]; (5), DC crush injury+375 mg/kg AZD3342; and (6), DC crush injury+Melatonin. Animals were dosed twice daily with oral AZD3342 or vehicle with the experimenters masked to the treatment conditions. These experiments were performed with n=6 rats/group and repeated on 2-3 independent occasions (total n=12-18 rats/group/test).
The lesion site+5 mm either side (DC and CC SCI, n=6 mice/rats/group, 2 independent repeats (total n=12 mice/rats/group)) was dissected and rapidly frozen in liquid N2 and stored at −80° C. until required. […] The levels of mRNA of MMP-9, MMP-12, IL-1β, TNF-α and IL-6 were determined using pre-validated mouse primer sequences from complimentary DNA prepared from extracted mRNA and qRT-PCR was performed using a LightCycler PCR machine (Roche, Burgess Hill, UK) (M. L. Read, S. Mir, R. Spice, R. J. Seabright, E. L. Suggate, Z. Ahmed, M. Berry, A. Logan, Profiling RNA interference (RNAi)-mediated toxicity in neural cultures for effective short interfering RNA design. J Gene Med 11, 523-534 (2009)). […]

[8] = system: mice with DC crush injury; experiment: Spinal cord water content (oedema) after DC crush injury in mice; type: in vivo, mouse; settings: IP, twice daily

Compound: COc1ccc(Cl)cc1C(=O)NCCc1ccc(S(=O)(=O)NC(=O)NC2CCCCC2)cc1 [Glibenclamide, reference compound]
- spinal cord water content, comparison of MMP inhibitors (FIG. 4) [1]: significantly reduced spinal cord water content

Compound: Nc1nc2ccc(OC(F)(F)F)cc2s1 [Riluzole, reference compound]
- spinal cord water content, comparison of MMP inhibitors (FIG. 4) [1]: significantly reduced spinal cord water content

Compound: O=C(Nc1nncs1)c1cccnc1 [TGN-020, N-1,3,4-Thiadiazol-2-yl-3-pyridinecarboxamide]
- SCI-induced oedema, water content (FIG. 21) [2]: suppress SCI-induced oedema

Compound: MCP-1: known chemotactic factor, positive control in migration assay
- macrophage migration (migration index, chemotaxis) [3]: stimulated significant chemotaxis

Compound: CC(C)C[C@H](CN)CC(=O)O [pregabalin]
- proinflammatory pain markers after CC injury, comparison with pain medications (FIG. 7) [4]: much less effective

Compound: COc1ccc2[nH]cc(CCNC(C)=O)c2c1 [melatonin, reference compound]
- levels of S100β, NSE, GFAP, pNF-H and NF-L in CSF [5]: marginally reduced
- spinal cord water content, comparison of MMP inhibitors (FIG. 4) [1]: significantly reduced spinal cord water content
- SCI-induced edema (spinal cord water content) [6]: marginal effect
- expression of proinflammatory pain cytokines [7]: small effect

Compound: COC(=O)Nc1ccc2oc3cc(S(=O)(=O)N[C@@H](C(=O)O)C(C)C)ccc3c2c1 [MMP408]
- SCI-induced oedema with tool inhibitors singly or in combination (FIG. 3D) [8]: suboptimal therapeutic benefits

Compound: CCCCCCCCCCCCCC(=O)O[C@@H]1[C@@H](C)[C@@]2(O)[C@@H](C=C(CO)C[C@]3(O)C(=O)C(C)=C[C@@H]23)[C@@H]2C(C)(C)[C@]12OC(C)=O [PMA]
- macrophage migration (migration index, chemotaxis) [3]: stimulated significant chemotaxis

Compound: NCC1(CC(=O)O)CCCCC1 [gabapentin]
- proinflammatory pain markers after CC injury, comparison with pain medications (FIG. 7) [4]: much less effective
